Source: US11229633B2, “Arimoclomol formulation” (Orphazyme A/S, priority 2014, dated 2022)

Target: T1, human OAT3 (Homo sapiens, UniProt Q8TCC7)
T1 construct: expressed in transfected cells; host or cells: MDCKII (protocol UPT-MDCKII-OAT3-E3S; control: parental MDCKII)
T1 sequence (Q8TCC7 1-542): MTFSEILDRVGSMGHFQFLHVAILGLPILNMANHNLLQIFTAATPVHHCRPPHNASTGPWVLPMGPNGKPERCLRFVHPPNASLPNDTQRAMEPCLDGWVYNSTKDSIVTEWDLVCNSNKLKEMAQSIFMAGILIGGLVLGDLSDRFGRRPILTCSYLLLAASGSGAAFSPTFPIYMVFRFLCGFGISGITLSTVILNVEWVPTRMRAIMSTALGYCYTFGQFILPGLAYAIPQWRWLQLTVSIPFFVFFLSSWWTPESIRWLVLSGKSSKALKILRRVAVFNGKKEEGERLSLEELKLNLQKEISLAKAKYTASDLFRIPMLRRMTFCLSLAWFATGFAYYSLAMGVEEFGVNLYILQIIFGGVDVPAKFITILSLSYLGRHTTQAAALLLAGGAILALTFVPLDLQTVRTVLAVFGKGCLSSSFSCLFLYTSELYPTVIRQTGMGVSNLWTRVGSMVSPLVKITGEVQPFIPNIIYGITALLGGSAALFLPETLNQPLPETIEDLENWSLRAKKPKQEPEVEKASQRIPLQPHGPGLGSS
Experiment: Uptake transporter substrate feasibility assay, OAT3
Assay type: in vitro ADME
Design: key to Substrate: NIO: No interaction observed
Description: Uptake experiments were performed using CHO, MDCKII, or HEK293 cells stably expressing the respective uptake transporters.
Cells were cultured at 37±1° C. in an atmosphere of 95:5 air:CO2 as described in Table 4 and were plated onto standard 24-well tissue culture plates at 2×10^5 cells/well. The uptake of the TA was determined using cells overexpressing the respective uptake transporter and control cells, at two incubation time points (2 and 20 min) and at two concentrations (1 and 10 μM) of TA to determine whether or not the TA was actively taken up into the cells.
Before the experiment, the medium was removed and the cells were washed twice with 300 μl of HK buffer (pH 7.4) (prepared from Sigma chemicals). Cellular uptake of TA into the cells was measured by adding 300 μl of HK buffer containing TA and incubating them at 37±1° C. Reactions were quenched by removing the HK buffer containing the TA and the cells were washed twice with 300 μl of HK buffer. Cells were lysed by adding 300 μl of MeOH:H2O (2:1) and incubated for 20 minutes at 4±1° C. The amount of TA in the cell lysate was determined by LC-MS/MS. The amount of protein in each well was quantified using the BCA kit for protein determination (Sigma-Aldrich, St Louis, Mo., USA). Uptake of the probe substrate in control cells provided background activity values for all data points. Incubation without reference inhibitor (solvent only) provided 100% activity values. A reference inhibitor served as positive control for inhibition.
The fold accumulation value was defined as the ratio of uptake of TA or probe substrate into transfected and control cells:
[formula] UPTTRP: accumulated amount of TA or probe substrate in transfected cells normalized by protein content [pmol/mg protein] UPTCTL: accumulated amount of TA or probe substrate in control cells normalized by protein content [pmol/mg protein]
If the fold accumulation is >2 and can be inhibited by a known inhibitor of the transporter, the TA can be considered to be a substrate of the respective transporter.

Q: What does the source list for `[O-][n+]1cccc(C(Cl)=NOCC(O)CN2CCCCC2)c1` (stereo not shown) [Arimoclomol, N-[2-hydroxy-3-(1-piperidinyl)-propoxy]-pyridine-1-oxide-3-carboximidoyl chloride]?
A: Substrate of the transporter (in words): not a substrate; Fold accumulation (1 μM, 2 min): 0.86; Fold accumulation (1 μM, 20 min): 0.86; Fold accumulation (10 μM, 2 min): 0.85; Fold accumulation (10 μM, 20 min): 0.82; Fold accumulation (1 and 10 μM, 2 and 20 min): < 2; Substrate (Table 2): NIO
